Test results taken from patent EP0871454B1, “PHOSPHOROUS-CONTAINING CYSTEINE AND SERINE PROTEASE INHIBITORS” (CEPHALON, INC., priority 1995, dated 1997).

Molecular target: T1, Calpain I (Homo sapiens, UniProt P07384)
T1 construct: made in house
T1 sequence (P07384 1-714): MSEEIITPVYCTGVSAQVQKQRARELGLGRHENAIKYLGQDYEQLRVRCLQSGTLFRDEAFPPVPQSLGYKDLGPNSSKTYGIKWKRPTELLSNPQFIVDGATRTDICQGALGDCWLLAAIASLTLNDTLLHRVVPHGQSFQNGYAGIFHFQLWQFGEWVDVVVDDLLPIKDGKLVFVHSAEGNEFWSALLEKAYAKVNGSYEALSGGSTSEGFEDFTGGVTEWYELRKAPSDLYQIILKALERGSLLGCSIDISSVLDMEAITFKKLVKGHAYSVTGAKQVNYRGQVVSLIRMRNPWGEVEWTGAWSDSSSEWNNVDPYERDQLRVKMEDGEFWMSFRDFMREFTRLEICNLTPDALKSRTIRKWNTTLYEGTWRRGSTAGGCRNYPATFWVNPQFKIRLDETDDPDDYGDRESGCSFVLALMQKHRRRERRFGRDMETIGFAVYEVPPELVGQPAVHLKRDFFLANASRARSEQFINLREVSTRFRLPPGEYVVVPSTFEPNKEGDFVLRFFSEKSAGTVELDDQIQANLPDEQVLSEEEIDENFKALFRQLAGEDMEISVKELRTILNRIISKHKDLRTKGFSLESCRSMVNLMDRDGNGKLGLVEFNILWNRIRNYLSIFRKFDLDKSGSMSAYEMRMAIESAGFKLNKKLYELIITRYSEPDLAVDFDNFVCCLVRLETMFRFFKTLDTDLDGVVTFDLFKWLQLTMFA
T1 sequence (P04632 1-268 partner): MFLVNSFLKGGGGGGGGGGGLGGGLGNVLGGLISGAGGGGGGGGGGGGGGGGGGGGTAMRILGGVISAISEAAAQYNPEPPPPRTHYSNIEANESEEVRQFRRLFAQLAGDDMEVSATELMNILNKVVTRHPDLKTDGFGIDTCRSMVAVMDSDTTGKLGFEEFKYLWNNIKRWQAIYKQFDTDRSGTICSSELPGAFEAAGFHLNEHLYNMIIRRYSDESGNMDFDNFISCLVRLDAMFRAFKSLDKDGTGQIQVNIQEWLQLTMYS
Assay: Inhibition and rate of inactivation of calpain I activity (Succ-Leu-Tyr-MNA substrate hydrolysis)
Assay type: biochemical
Details: for kobs/I: apparent second order rate constant of inactivation, pseudo-first order conditions, compounds tested at 0.1 µM, mean of three or more single cuvette analyses
Description: Inhibition and Rate of Inactivation of Cysteine Protease Activity
To evaluate inhibitory activity, stock solutions (40 times concentrated) of each compound to be tested were prepared in 100% anhydrous DMSO and 5 µl of each inhibitor preparation were aliquoted into each of three wells of a 96 well plate. Calpain I, prepared by a modification of the method of W. J. Lee et al. (Biochem. Internatl. 22: 163-171 (1990)), was diluted into assay buffer (i.e., 50mM Tris, 50mM NaCl, 1mM EDTA, 1mM EGTA, and 5mM β-mercaptoethanol, pH 7.5 including 0.2mM Succ-Leu-Tyr-MNA) and 175 µl aliquoted into the same wells containing the independent inhibitor stocks as well as to positive control wells containing 5 µl DMSO, but no compound. To start the reaction, 20 µl of 50 mM CaCl2 in assay buffer was added to all wells of the plate, excepting three, which were used as background signal baseline controls. Substrate hydrolysis was monitored every 5 minutes for a total of 30 minutes. Substrate hydrolysis in the absence of inhibitor was linear for up to 15 minutes.
Inhibition of calpain I activity was calculated as the percent decrease in the rate of substrate hydrolysis in the presence of inhibitor (vi) relative to the rate in its absence (vo). Comparison between vo and vi was made within the linear range for substrate hydrolysis. […] Apparent second order rate constants were determined from analysis of reaction progress curves under pseudo-first order conditions. Each determination represents the mean of three or more independent single cuvette analyses continually monitored via a Perkin-Elmer LS50B spectrofluorimeter.
Values for kobs/I are given in Table I for compounds tested at 0.1 µM. [drawing 8]

% Inhib. @ 0.1 uM (0.1 uM compound, percent decrease in rate of substrate hydrolysis relative to no inhibitor)	Compound	kobs/I
	CC(C)C[C@H](NC(=O)OC(C)(C)C)C(=O)N[C@@H](Cc1ccccc1)C(=O)COP(=O)(OCc1ccccc1)OCc1ccccc1 [Example 35, Dibenzyl (3S)-[3-[(N-t-Butoxycarbonyl-L-leucyl)amino]-2-oxo-4-phenylbutyl]phosphate]	242000 M⁻¹ s⁻¹
	CC(C)C[C@H](NS(=O)(=O)N1CCOCC1)C(=O)N[C@@H](Cc1ccccc1)C(=O)COP(=O)(OCc1ccccc1)OCc1ccccc1 [Example 36, Dibenzyl (3S)-[3-[(N-morpholinylsulfonyl-L-leucyl)amino]-2-oxo-4-phenylbutyl] phosphate]	182000 M⁻¹ s⁻¹
	CC(C)CC(NC(=O)C12OC3COC(C)(C)OC3C1OC(C)(C)O2)C(=O)NC(Cc1ccccc1)C(=O)COP(=O)(OCc1ccccc1)OCc1ccccc1 [Example 37, Dibenzyl (3S)-[3-[(N-diisopropylidine-2-keto-L-gulonyl-L-leucyl)amino]-2-oxo-4-phenylbutyl] phosphate]	113000 M⁻¹ s⁻¹
	CC(C)C[C@H](NC(=O)C12OC(CO)C(O)C1OC(C)(C)O2)C(=O)N[C@@H](Cc1ccccc1)C(=O)COP(=O)(OCc1ccccc1)OCc1ccccc1 (stereo partly drawn) [Example 38, Dibenzyl (3S)-[3-[(N-monoisopropylidine-2-keto-L-gulonyl-L-leucyl)amino]-2-oxo-4-phenylbutyl] phosphate)]	116000 M⁻¹ s⁻¹
47%	CC(C)C[C@H](NC(=O)OCc1ccccc1)C(=O)N[C@@H](Cc1ccccc1)C(=O)COP1(=O)OCC(OCc2ccccc2)CO1 (some centres unmarked) [Example 47]	
